Measurements taken from patent US6358921B1, “Antimicrobial peptide compositions and method” (priority 1996, dated 2002).
Where two headings read alike, the source gives them in different places. Where a SMILES comes first, the peptide text is derived from it. [ ]: non-standard residue; d: D form. Orn = NCCC[C@H](N)C(=O)O

Legend:
E. coli SC9252 = experiment: MIC, liquid-broth microtitre dilution; type: cell-based, Escherichia coli; conditions: unit from Table 10
Text: (§1) The following bacterial strains were utilized: Escherichia coli UB1005 (wt) and its antibiotic supersusceptible derivative DC2 (Clark, 1984); Excherichia coli SC9251 and its polymixin B rasistant mutant pmrA SC9252 (Peterson, et al., 1987) Pseudomonas aeruginosa H187 (wt) (Angus, et al., 1987) and its antibiotic-sensitive derivative H188 (Zimmerman, W, Antimicrob. Agents Chemother. 18: 94-100, 1980); methicillin sensitive Staphylococcus aureus K147 (Kreiswirth, et al., 1983); Staphylococcus aureus SAP0017, a methicillin resistant clinical isolate from Dr. A. Chow (University of British Columia); Bacillus subtilis, an environmental wt lab strain. Enterococcus faecalis are ATCC 29212 cells and Staphylococcus epidermidis was a clinical isolate from Dr. D. Speert (University of British Columbia). Antifungal activity was tested using a clinical lab isolate of Candida albicans. Salmonella typhinurium C57 and C610 (Fields, P.I., et al., Science 243: 1059-1062 (1989) Corynebacterium xerosis was an environmental isolate (University of British Columbia).
(§2) It is now apparent that agar-based assays severely underestimate antifungal activity as well as activity against gram negative microorganisms (Kondejewski, et al., 1996). Consequently, in the studies reported herein, a liquid-broth method was used to measure the antibiotic properties of the peptides. […] Briefly, cells were grown overnight at 37° C. in LB and diluted in the same medium. Serial dilutions of antibiotics were added to the microtitre plates in a volume of 100 μL followed by 10 μL of bacteria to give a final inoculum of 5×10^5 CFU/mL. Plates were incubated at 37° C. overnight and MICs determined as the lowest antibiotic concentration that inhibited growth.

E. coli SC9251 = experiment: MIC, liquid-broth microtitre dilution; type: cell-based, Escherichia coli; conditions: unit from Table 10
Text: as §1, §2

E. coli DC2 = type: cell-based, Escherichia coli; conditions: for Antibiotic activity (Table 11, ring analogs): E. coli DC2, unit from Table 10
In short: (§3)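 MIC read-out, μg/ml, lowest peptide concentration with no growth after overnight incubation at 37 °C in LB liquid broth. Inoculum 5×10^5 CFU/mL from overnight cultures. Therapeutic index = concentration giving complete blood-cell lysis at 4 h divided by MIC.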

P. aeruginosa H188 = type: cell-based, Pseudomonas aeruginosa; conditions: for Antibiotic activity (Table 11, ring analogs): P. aeruginosa H188, unit from Table 10
In short: (§4)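 Antimicrobial activity is measured by a liquid-broth assay in LB at 37 °C overnight, starting from 5×10^5 CFU/mL. Values are minimal inhibitory concentrations, i.e. the lowest concentration that stops growth.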

E. coli UB1005 = type: cell-based, Escherichia coli; conditions: for Antibiotic activity (Table 11, ring analogs): E. coli UB1005, unit from Table 10
In short: as §4

human erythrocytes = experiment: Hemolytic activity; type: cell-based
Protocol: Serial dilutions of the peptides in saline were prepared in round bottom microtitre plates using 100 μL volumes. Red blood cells were diluted with saline to 1/25 packed volume of cells and 50 μL added to each well. Plates were incubated with rocking at 37° C., and the concentration required for complete lysis determined visually after 4 h.

[1] = Displacement of dansyl-polymyxin from LPS; type: binding, P. aeruginosa
In short: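 Peptides titrated into 3 μg/mL P. aeruginosa LPS with 2.5 μM dansyl-polymyxin (~90% site saturation) in 5 mM sodium HEPES, pH 7.0; fluorescence decrease recorded. I50 (50% probe displacement) taken from the x-intercept of a double-reciprocal plot of percent inhibition versus inhibitor concentration.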

yeast = experiment: Antibiotic activity, yeast; type: cell-based; conditions: average activity calculated from Table II
Text: as §1, §2
(§5) The results from antimicrobial and hemolytic assays are combined to provide a “Therapeutic Index” (TI) for each peptide with respect to individual microorganisms. As reported herein, the TI is calculated as the hemolytic activity divided by the antimicrobial activity. The TI thus is a measure of specificity of the particular peptide for microbial membranes as opposed to human blood cell membranes. In the present studies, antimicrobial activities are reported as minimum inhibitory concentrations (MIC)—the lowest concentration of peptide (μg/ml) found to inhibit growth of the particular microbe. Hemolytic activity is reported as the concentration of peptide that effected complete lysis of blood cells after four hours. Thus, in the context of the present invention high TI values indicate microbial specificity and relative lack of toxicity.

[2] = test system: gram negative microorganisms; type: cell-based; conditions: average activity calculated from Table II
Text: as §1, §2, §5

[3] = test system: gram positive microorganisms; type: cell-based; conditions: for Antibiotic activity, gram-positive: average activity calculated from Table II
Text: as §1, §2, §5

P. aeruginosa H187 = type: cell-based, Pseudomonas aeruginosa; conditions: for Antibiotic activity (Table 11, ring analogs): P. aeruginosa H187, unit from Table 10
In short: as §3

S. aureus SAP0017 = type: cell-based, Staphylococcus aureus
In short: as §3

S. aureus K147 = type: cell-based, Staphylococcus aureus
In short: as §3

C. xeroses = type: cell-based, Corynebacterium xerosis
In short: as §4

E. faecalis = type: cell-based, Enterococcus faecalis
In short: as §4

S. typhinurium C610 = type: cell-based, Salmonella typhinurium
In short: as §4

S. typhinurium C587 = type: cell-based, Salmonella typhinurium
In short: as §4

B. subtilis = type: cell-based, Bacillus subtilis
In short: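 Liquid-broth microdilution: overnight LB cultures diluted and added to serial peptide dilutions at final 5×10^5 CFU/mL, incubated overnight at 37 °C. MIC is the lowest concentration inhibiting growth; C. albicans a clinical isolate, S. epidermidis clinical, C. xerosis environmental.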

S. epidermidis = type: cell-based, Staphylococcus epidermidis
In short: as §4

Acholeplasma laidlawii = type: cell-based
Text: According to another feature of the invention, GS14, which is apparently an unlikely antibacterial agent, is useful against mycoplasma infection. […] One use of such a compound is inclusion in tissue culture media, where mycoplasma contamination can pose serious problems in industrial applications of cell culture. […] Such concentrations can be determined according to standard methods known in the art.

C. Albicans = type: cell-based, Candida albicans
In short: as §4

[4] = Table 10, read-out: LPS binding activity: peptide concentration to displace 50% of dansyl-polymyxin from LPS

| SMILES | Antibiotic activity (Table 11, ring analogs) (E. coli SC9252) | Antibiotic activity (Table 11, ring analogs) (E. coli SC9251) | Antibiotic activity (Table 11, ring analogs) (E. coli DC2) | Antibiotic activity (Table 11, ring analogs) (P. aeruginosa H188) | Antibiotic activity (Table 11, ring analogs) (E. coli UB1005) | Hemolytic activity (human erythrocytes) | IC50 [1, 4] | Antibiotic activity, yeast (yeast) | Antibiotic activity, gram-negative [2] | Antibiotic activity, gram-positive [3] | Antibiotic activity (Table 11, ring analogs) (P. aeruginosa H187) | further results |
| --- | --- | --- | --- | --- | --- | --- | --- | --- | --- | --- | --- | --- |
| CC(C)C[C@@H]1NC(=O)[C@H](CCCN)NC(=O)[C@H](CC(C)C)NC(=O)[C@@H]2CCCN2C(=O)[C@@H](Cc2ccccc2)NC(=O)[C@H](CC(C)C)NC(=O)[C@H](CCCN)NC(=O)[C@H](CC(C)C)NC(=O)[C@H](CCCN)NC(=O)[C@@H]2CCCN2C(=O)[C@@H](Cc2ccccc2)NC(=O)[C@H](CCCN)NC1=O [GS12FO/LL, FPLOLOFPOLOL] (cyclo(L[Orn]L[Orn][dF]P[Orn]L[Orn]L[dF]P)) | 9 μg/ml | 8 μg/ml | 5 μg/ml | 8 μg/ml | 16 μg/ml | 170 µg/mL | 44 µM | 16 µg/mL | 18 µg/mL | 42 µg/mL | 63 μg/ml |  |
| CC(C)C[C@@H]1NC(=O)[C@H](CCCCN)NC(=O)[C@H](C(C)C)NC(=O)[C@@H]2CCCN2C(=O)[C@@H](Cc2ccccc2)NC(=O)[C@H](CC(C)C)NC(=O)[C@H](CCCCN)NC(=O)[C@H](C(C)C)NC(=O)[C@H](CCCCN)NC(=O)[C@@H]2CCCN2C(=O)[C@@H](Cc2ccccc2)NC(=O)[C@H](CCCCN)NC1=O [GS12F] | 14 μg/ml | 11 μg/ml | 9 μg/ml | 8 μg/ml | 17 μg/ml | 400 µg/mL | 127 µM | 13 µg/mL | 16 µg/mL | 110 µg/mL | 38 μg/ml |  |
| CC(C)C[C@@H]1NC(=O)[C@H](CCCCN)NC(=O)[C@@H]2CCCN2C(=O)[C@@H](Cc2ccc(O)cc2)NC(=O)[C@H](CCCCN)NC(=O)[C@H](C(C)C)NC(=O)[C@H](CCCCN)NC(=O)[C@H](CC(C)C)NC(=O)[C@@H]2CCCN2C(=O)[C@@H](Cc2ccc(O)cc2)NC(=O)[C@H](C(C)C)NC(=O)[C@H](CCCCN)NC1=O [GS12LV] | 25 μg/ml | 22 μg/ml | 14 μg/ml | 10 μg/ml | 21 μg/ml | 92 µg/mL | 33 µM | 50 µg/mL | 25 µg/mL | 240 µg/mL | 58 μg/ml |  |
| CC(C)C[C@@H]1NC(=O)[C@H](CCCCN)NC(=O)[C@H](C(C)C)NC(=O)[C@@H]2CCCN2C(=O)[C@@H](Cc2ccc(O)cc2)NC(=O)[C@H](CC(C)C)NC(=O)[C@H](CCCCN)NC(=O)[C@H](C(C)C)NC(=O)[C@H](CCCCN)NC(=O)[C@@H]2CCCN2C(=O)[C@@H](Cc2ccc(O)cc2)NC(=O)[C@H](CCCCN)NC1=O [GS12] | 30 μg/ml | 42 μg/ml | 11 μg/ml | 10 μg/ml | 25 μg/ml | 250 µg/mL | 46 µM | 42 µg/mL | 32 µg/mL | 240 µg/mL | 75 μg/ml | Increase in LPS binding activity in comparison to shorter peptides ([1]; addition of two positive charges): approximately 6 fold |
| CC(C)C[C@@H]1NC(=O)[C@H](CCCCN)NC(=O)[C@H](C(C)C)NC(=O)[C@@H]2CCCN2C(=O)[C@@H](Cc2ccc(O)cc2)NC(=O)[C@H](CC(C)C)NC(=O)[C@H](CCCCN)NC(=O)[C@H](C(C)C)NC(=O)[C@H](CCCCN)NC(=O)[C@H](CC(C)C)NC(=O)[C@@H]2CCCN2C(=O)[C@@H](Cc2ccc(O)cc2)NC(=O)[C@H](C(C)C)NC(=O)[C@H](CCCCN)NC1=O [GS14] | 190 μg/ml | 400 μg/ml | 190 μg/ml | 400 μg/ml | 400 μg/ml |  |  |  |  |  | 400 μg/ml | Minimum Inhibitory Concentration (activity) (S. aureus SAP0017): >200 µg/mL; Minimum Inhibitory Concentration (activity) (S. aureus K147): >200 µg/mL; Minimum Inhibitory Concentration (activity) (E. coli DC2; DC2): >200 µg/mL; Minimum Inhibitory Concentration (activity) (P. aeruginosa H188; H188): >200 µg/mL; Minimum Inhibitory Concentration (activity) (C. xeroses): 9 µg/mL; Minimum Inhibitory Concentration (activity) (E. coli UB1005; UB1005): >200 µg/mL; Minimum Inhibitory Concentration (activity) (E. faecalis): 1.5 µg/mL; IC50 ([1]; read-out: LPS binding affinity: peptide concentration to displace 50% of dansyl-polymyxin B from LPS, Tables 1, 4, 7): 3 µM; Minimum Inhibitory Concentration (activity) (S. typhinurium C610): >200 µg/mL; Minimum Inhibitory Concentration (activity) (S. typhinurium C587): >200 µg/mL; Minimum Inhibitory Concentration (activity) (B. subtilis): >200 µg/mL; Minimum Inhibitory Concentration (activity) (S. epidermidis): 200 µg/mL; MIC (Acholeplasma laidlawii): less than 30 μg/ml; MIC against four of the gram positive microorganisms tested [3]: > 200 µg/mL; Minimum Inhibitory Concentration (activity) (P. aeruginosa H187; H187): >200 µg/mL; Minimum Inhibitory Concentration (activity) (C. Albicans): 150 µg/mL |
